# Laboratory results reported in patent US20060147549A1, “Methods and compositions for reducing population of plant pathogen” (priority 2004, published 2006).
# Test system: citrus canker microbe (Xanthomonas axonopodis pv citri)
# Assay: Nursery experiment: compositions sprayed on fruit bearing citrus trees inoculated with citrus canker microbe
# Type: in vivo
# Description: In a nursery experiment, three antimicrobial compositions and a control composition were tested for activity against citrus canker microbe. The compositions were sprayed on fruit bearing citrus trees that had been inoculated with citrus canker microbe (Xanthomonas axonopodis pv citri). In these experiments composition A was the metal antimicrobial agent and poly(hexamethyl biguanide) composition and composition B was this composition plus copper ion.
# The composition of metal antimicrobial agent and poly(hexamethyl biguanide) as used in compositions A and B included: water ([…]), poly(hexamethyl biguanide) (0.6 wt-%), and silver iodide (0.02 wt-%) Triton X-100 (2 wt-%), Tectronic 1107 (1.2 wt-%), 1-methyl-2-pyrrolidinone (0.3 wt-%), and ethanol (2.8 wt-%).
# The antimicrobial composition was applied periodically and the plants were challenged with citrus canker microbe.
substance,measurement,setting,value
Copper,% OF HEALTHY LEAVES,Date 1,82%
same,% OF LEAVES WITH CANKER,Date 1,22.2%
same,% OF HEALTHY LEAVES,Date 2,80.7%
same,% OF LEAVES WITH CANKER,Date 2,18%
same,% OF HEALTHY LEAVES,Date 4,84.7%
same,% OF LEAVES WITH CANKER,Date 4,17.59%
